Experiments:
[1] = system: dog; conditions: Subchronic oral toxicity in nonrodent, beagle, Capsule, dose end: 13 week, group: systemic
[2] = system: dog; conditions: Chronic toxicity, beagle, Oral, Capsule, dose end: 52 week, group: systemic
[3] = system: rat; conditions: Multigenerational reproductive toxicity study, sprague dawley, Oral, Feed, dose end: 2 generation
[4] = system: rat; conditions: Prenatal developmental toxicity study, sprague dawley, Oral, Gavage/Intubation, dose end: 16 GD
[5] = system: rat; conditions: Subchronic oral toxicity in rodents, sprague dawley, Feed, dose end: 13 week, group: systemic
[6] = system: mouse; conditions: Carcinogenicity, cd1, Oral, Feed, dose end: 80 week, group: systemic
[7] = system: rat; conditions: Combined chronic toxicity/carcinogenicity, sprague dawley, Oral, [Not Specified], dose end: 104 week, group: systemic
[8] = system: rat; conditions: Subchronic oral toxicity in rodents, wistar, Feed, dose end: 13 week, group: systemic
[9] = system: mouse; conditions: Carcinogenicity, cd1, Oral, Feed, dose end: 104 week, group: systemic
[10] = system: mouse; conditions: Subchronic oral toxicity in rodents, cd1, Feed, dose end: 90 day, group: systemic
[11] = system: rat; conditions: Combined chronic toxicity/carcinogenicity, other, Oral, Feed, dose end: 104 week, group: systemic
[12] = system: dog; conditions: Chronic toxicity; beagle; Oral; Feed; dose end: 2 year; group: systemic; systemic / in life observation / body weight / body weight gain + systemic / in life observation / food consumption / food consumption + …
[13] = system: rat; conditions: Multigenerational reproductive toxicity study, sprague dawley, Oral, Feed, dose end: 2 generation; remark: listed apart in the source
[14] = system: dog; conditions: Sub-acute repeat dose toxicity; other; Oral; Feed; dose end: 4 week; group: systemic; systemic / in life observation / body weight / body weight gain + systemic / in life observation / food consumption / food consumption
[15] = system: rat; conditions: Chronic toxicity; sprague dawley (CD); Oral; Feed; dose end: 104 week; group: systemic; systemic / in life observation / body weight / body weight + systemic / in life observation / body weight / body weight gain
[16] = system: rat; conditions: Chronic toxicity; wistar; Oral; Feed; dose end: 2 year; group: systemic; systemic / hematology / hemoglobin (hgb) / hemoglobin (hgb) + systemic / in life observation / body weight / body weight + systemic / organ …
[17] = systemic / in life observation / body weight / body weight gain + systemic / urinalysis / porphyrins / porphyrins
[18] = systemic / in life observation / body weight / body weight gain + systemic / urinalysis / porphyrins / porphyrins + systemic / hematology / …
[19] = systemic / urinalysis / porphyrins / porphyrins
[20] = systemic / urinalysis / porphyrins / porphyrins + systemic / organ weight / liver / absolute
[21] = group: offspring, systemic / in life observation / body weight / offspring (pup) weight
[22] = group: parental, systemic / hematology / mean corpuscular (cell) volume (mcv) / mean corpuscular (cell) volume (mcv) + systemic / hematology / mean …
[23] = group: developmental, developmental / developmental malformation / bone / thickened + developmental / developmental malformation / bone / wavy
[24] = group: maternal, systemic / in life observation / clinical signs / abdominogenital staining + systemic / in life observation / clinical signs / discharge on …
[25] = systemic / clinical chemistry / alanine aminotransferase (alt/sgpt) / alanine aminotransferase (alt/sgpt) + systemic / clinical chemistry / …
[26] = systemic / in life observation / body weight / body weight gain + systemic / pathology microscopic / liver / inflammation
[27] = systemic / pathology microscopic / liver / discolored
[28] = systemic / pathology microscopic / liver / discolored + systemic / clinical chemistry / cholesterol / cholesterol + systemic / in life …
[29] = systemic / hematology / anemia / anemia - hemolytic + systemic / hematology / hemoglobin (hgb) / hemoglobin (hgb) + systemic / hematology / …
[30] = systemic / clinical chemistry / cholesterol / cholesterol + systemic / clinical chemistry / gamma glutamyl transpeptides (gtp) / gamma …
[31] = systemic / pathology microscopic / liver / hypertrophy
[32] = systemic / pathology microscopic / liver / hypertrophy + systemic / organ weight / liver / absolute + systemic / organ weight / liver / …
[33] = systemic / clinical chemistry / thyroxine (t4) / thyroxine (t4), total + systemic / pathology microscopic / liver / cellular alteration + …
[34] = group: parental, systemic / pathology gross / lung / foci + systemic / pathology microscopic / kidney / dilatation + systemic / pathology microscopic / …

## CCOC(=O)C(Cl)Cc1cc(-n2nc(C)n(C(F)F)c2=O)c(F)cc1Cl (stereo not given) [Carfentrazone-ethyl]
[1]; [17]
  LEL: 150 mg/kg/day
  LOAEL: 150 mg/kg/day
[1]; [18]
  NEL: 50 mg/kg/day
  NOAEL: 50 mg/kg/day
[2]; [19]
  LEL: 150 mg/kg/day
  LOAEL: 150 mg/kg/day
[2]; [20]
  NEL: 50 mg/kg/day
  NOAEL: 50 mg/kg/day
[3]; [21]
  LEL: 343 mg/kg/day
  LOAEL: 343 mg/kg/day
  NEL: 127 mg/kg/day
  NOAEL: 127 mg/kg/day
[3]; [22]
  LEL: 343 mg/kg/day
  LOAEL: 343 mg/kg/day
  NEL: 127 mg/kg/day
  NOAEL: 127 mg/kg/day
[4]; [23]
  LEL: 1250 mg/kg/day
  LOAEL: 1250 mg/kg/day
  NEL: 600 mg/kg/day
  NOAEL: 600 mg/kg/day
[4]; [24]
  LEL: 600 mg/kg/day
  LOAEL: 600 mg/kg/day
  NEL: 100 mg/kg/day
  NOAEL: 100 mg/kg/day
[5]; [25]
  LOAEL: 470 mg/kg/day
  NEL: 58 mg/kg/day
  NOAEL: 226 mg/kg/day
[5]; systemic / in life observation / clinical signs / urine, discoloration + systemic / in life observation / food consumption / food …
  LEL: 226 mg/kg/day
[6]; [26]
  LEL: 10 mg/kg/day
  NEL: < 10 mg/kg/day
[6]; systemic / in life observation / body weight / body weight gain + systemic / pathology microscopic / liver / inflammation + systemic / in …
  NOAEL: 10 mg/kg/day
[6]; systemic / pathology microscopic / liver / inflammation + systemic / in life observation / mortality / mortality + systemic / pathology …
  LOAEL: 110 mg/kg/day
[7]; [27]
  LEL: 12 mg/kg/day
  LOAEL: 12 mg/kg/day
[7]; [28]
  NEL: 3 mg/kg/day
  NOAEL: 3 mg/kg/day

## COC(=O)c1c(Cl)c(Cl)c(C(=O)OC)c(Cl)c1Cl [Chlorthal-dimethyl]
[8]; [29]
  LOAEL: > 2500 mg/kg/day
  NEL: 5 mg/kg/day
  NOAEL: ≥ 2500 mg/kg/day
[8]; systemic / hematology / polychromasia / polychromasia
  LEL: 17 mg/kg/day
[9]; [30]
  LOAEL: 1140 mg/kg/day
  NEL: 15 mg/kg/day
  NOAEL: 510 mg/kg/day
[9]; systemic / clinical chemistry / gamma glutamyl transpeptides (gtp) / gamma glutamyl transpeptides (gtp) + systemic / clinical chemistry / …
  LEL: 150 mg/kg/day
[10]; [31]
  LEL: 1050 mg/kg/day
  LOAEL: 1240 mg/kg/day
[10]; [32]
  NEL: 517 mg/kg/day
  NOAEL: 406 mg/kg/day
[11]; [33]
  LEL: 10 mg/kg/day
  LOAEL: 10 mg/kg/day
  NOAEL: 1 mg/kg/day
[11]; systemic / pathology microscopic / eye / atrophy + systemic / pathology microscopic / liver / cellular alteration + systemic / pathology …
  NEL: 1 mg/kg/day
[12]
  LEL: 100 mg/kg/day
  LOAEL: > 100 mg/kg/day
  NEL: 15 mg/kg/day
  NOAEL: ≥ 100 mg/kg/day
[13]; [21]
  LEL: 233 mg/kg/day
  LOAEL: 233 mg/kg/day
  NEL: 45 mg/kg/day
  NOAEL: 45 mg/kg/day
[13]; [34]
  LOAEL: 233 mg/kg/day
  NOAEL: 45 mg/kg/day
[13]; group: parental, systemic / pathology microscopic / lung / infiltration cellular + systemic / pathology microscopic / thymus / involution
  LEL: 45 mg/kg/day
[14]
  LEL: 250 mg/kg/day
  LOAEL: > 1250 mg/kg/day
  NEL: 50 mg/kg/day
  NOAEL: ≥ 1250 mg/kg/day
[15]
  LEL: 1000 mg/kg/day
  LOAEL: 1000 mg/kg/day
  NEL: 50 mg/kg/day
  NOAEL: 50 mg/kg/day
[16]
  LEL: 80 mg/kg/day
  LOAEL: > 80 mg/kg/day
  NEL: 20 mg/kg/day
  NOAEL: ≥ 80 mg/kg/day
